Here are results for 1 molecule from article PMC11509018, “Evaluation of the Role of Tanshinone I in an In Vitro System of Charcot-Marie-Tooth Disease Type 2N” (International Journal of Molecular Sciences, 2024).

Changes are numbered by the printed parent chain.

For one test, the target named is T1, AlaRS^N71Y (Homo sapiens, UniProt P49588, N71Y).
T1 construct: made in house; host or cells: E. coli BL21 (DE3), pET-21a
T1 sequence (P49588 1-968 N71Y): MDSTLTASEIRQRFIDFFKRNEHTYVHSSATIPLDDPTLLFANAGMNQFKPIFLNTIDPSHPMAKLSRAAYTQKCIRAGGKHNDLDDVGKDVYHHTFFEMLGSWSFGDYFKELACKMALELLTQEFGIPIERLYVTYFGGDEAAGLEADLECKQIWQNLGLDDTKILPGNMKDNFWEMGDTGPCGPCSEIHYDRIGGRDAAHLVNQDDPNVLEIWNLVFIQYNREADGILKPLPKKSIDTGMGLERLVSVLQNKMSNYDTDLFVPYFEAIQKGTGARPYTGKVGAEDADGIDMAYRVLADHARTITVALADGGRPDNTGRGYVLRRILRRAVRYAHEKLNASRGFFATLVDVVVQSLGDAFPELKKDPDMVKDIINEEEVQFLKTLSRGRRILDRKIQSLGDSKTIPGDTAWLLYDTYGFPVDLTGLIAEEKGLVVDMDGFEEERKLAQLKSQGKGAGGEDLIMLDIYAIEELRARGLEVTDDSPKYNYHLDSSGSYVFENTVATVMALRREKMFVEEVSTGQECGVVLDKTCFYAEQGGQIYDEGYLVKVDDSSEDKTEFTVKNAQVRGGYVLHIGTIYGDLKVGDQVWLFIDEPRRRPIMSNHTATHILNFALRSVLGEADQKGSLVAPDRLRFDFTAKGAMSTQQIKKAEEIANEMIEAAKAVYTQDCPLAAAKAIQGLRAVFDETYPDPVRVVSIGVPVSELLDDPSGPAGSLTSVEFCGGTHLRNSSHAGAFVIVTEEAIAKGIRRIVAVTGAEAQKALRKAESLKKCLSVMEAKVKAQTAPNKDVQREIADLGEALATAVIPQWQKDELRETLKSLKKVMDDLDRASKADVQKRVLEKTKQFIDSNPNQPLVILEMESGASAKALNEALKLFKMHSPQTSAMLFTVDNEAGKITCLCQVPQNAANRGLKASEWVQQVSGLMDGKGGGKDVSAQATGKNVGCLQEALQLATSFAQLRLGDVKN
Nature of the test: Biolayer interferometry (BLI). Type of test: binding. The settings on record: immobilized AlaRS^N71Y, mean ± SD, triplicate. The procedure: (§1) Furthermore, we examined the interaction of Tanshinone I with additional AlaRS CMT mutants capable of binding to Nrp1 and causing conformational changes by BLI and proteolysis assays on additional related mutants. […] To further quantify the binding of small molecules to mutant proteins, binding experiments with AlaRS^R329H proteins and small molecules were conducted using an Octet R8 system (ForteBio, Fremont, CA, USA). Purified His-tagged AlaRS^R329H proteins (500 μg/mL) were captured on Ni-NTA biosensors (ForteBio, Fremont, CA, USA), achieving a saturation response of 4–5 nm after 300 s. The biosensors were then transferred to Octet buffer (PBS with 0.01% Tween 20) for 180 s to remove loosely bound, nonspecific proteins and to establish a stable baseline. Following this, the sensors were immersed in diluted Tanshinone I (2.5–100 μM in assay buffer) for 120 s to record the association signal, and then transferred back into Octet buffer to monitor the dissociation signal for 120 s. Reference wells containing buffer instead of Tanshinone I were included to correct for baseline shifts. Additionally, a parallel set of Ni-NTA sensors in buffer served as negative reference controls to account for nonspecific binding of the compounds to the biosensor surface. The data were processed using a double reference subtraction protocol to eliminate nonspecific signals, background noise, and signal drifts caused by biosensor variability. All assays were performed in 96-well black plates with a total volume of 200 μL per well at 30 °C. Data analysis, including correction and curve fitting, was carried out using Octet® Analysis Studio 12.2.2.26. The experiment was repeated three times.

The next test addresses T2, AlaRS^E337K (Homo sapiens, UniProt P49588, E337K).
T2 construct: made in house; host or cells: E. coli BL21 (DE3), pET-21a
T2 sequence (P49588 1-968 E337K): T1 sequence (P49588 1-968 N71Y) with Y71N, E337K
As to the kind of experiment: Biolayer interferometry (BLI). Type of test: binding. The settings on record: immobilized AlaRS^E337K, mean ± SD, triplicate. The procedure: as §1
For orientation: Biolayer interferometry detects binding as a change in optical thickness at a sensor tip.

`Cc1coc2c1C(=O)C(=O)c1c-2ccc2c(C)cccc12` [Tanshinone I]: the Kd (commonly the equilibrium constant for the complex coming apart) was determined as 37.8 ± 6.2 µM at AlaRS^N71Y and 19.2 ± 4.2 µM on AlaRS^E337K.
